Test results as given in patent publication US5767268A, “Sulfuric acid esters of amino sugars” (Hoffmann-La Roche Inc., priority 1995, dated 1998).
Counter-ions that a name gives are not always drawn. Like-named read-outs stand apart in the source and are kept apart here.

Experiments:
[1] = system: neointima in rat carotids; experiment: In vivo assay of the antiproliferative activity in damaged rat carotids (neointima); set-up: species or system rat (male Wistar Kyoto); conditions: 1 mg/kg/h i.v., p<0.001 t-test
Method: In vivo assay for the determination of the antiproliferative activity of the compounds in accordance with the invention in damaged rat carotids
After narcosis, the left carotids of male Wistar Kyoto rats (300-400 g) were damaged with a 2 F embolectomy catheter by drawing the catheter in the pumped-up state three times through the vessel. After wound healing, the animals were kept in pairs with standard feed and water ad libidum.
The compounds were administered in concentrations of 0.3-1 mg/kg/h i.v. For this purpose, during the narcosis an osmotic minipump was implanted into the animals under the dorsal skin and was attached to the jugular vein. Thus, the compounds could be administered constantly during the entire test period of 14 days.
After 14 days proliferative tissue (neointima) had formed, the size of which could be determined morphometrically on histological cross-sections.For this purpose, the rats were sacrificed and perfusion-fixed with glutaraldehyde.

[2] = system: rat smooth muscle cells; experiment: Antiproliferative activity (ri, relative to heparin) in rat smooth muscle cells; assay type: cell-based; set-up: key: growth inhibition relative to heparin at 100 μg/ml, same experiment; conditions: 100 μg/ml, 48 h, relative to heparin at 100 μg/ml in the same experiment
Method: Antiproliferative Activity
The antiproliferative activity of a substance is expressed as the ri value which is a comparative value to the corresponding activity of heparin and which was determined in cell cultures as follows: rat smooth muscle cells were applied to cell culture plates in a density of 8×10^3 cells/well (medium: DMEM with 10% FCS. Cultivation at 37° C. and 5% CO2). After 4 hours, the number of adhered cells was determined and the substances to be tested (100 μg/ml, dissolved in H2 O) were added. […] Subsequently, the cells were incubated for 48 h. and thereafter the cell count was determined once more.
The inhibition i of the cell growth, that is, the reduction in the growth rate of the cells in percent compared to the control, was calculated from these values. [formula] the growth rate μbeing calculated as [formula] in which Z is the number of cells and d is the time in days.
Finally, ri --the relative inhibitory activity--which expresses the activity of a substance (at 100 μg/ml) in comparison to the activity of heparin in the same concentration in the same experiment, was calculated: [formula] Blood Coagulation Inhibition

[3] = target: T1, Factor Xa (Bos taurus, UniProt P00743); experiment: Blood coagulation inhibition: inhibition of Factor Xa in the Chromogen Substrate Test; assay type: biochemical
T1 sequence (P00743 41-180 limits assumed): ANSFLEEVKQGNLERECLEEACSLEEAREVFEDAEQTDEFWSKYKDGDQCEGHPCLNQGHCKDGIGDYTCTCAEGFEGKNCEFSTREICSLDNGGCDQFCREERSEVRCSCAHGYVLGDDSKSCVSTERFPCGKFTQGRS
Method: (§1) Inhibition of thrombin or Factor Xa in the Chromogen Substrate Test (Teien et al., Thrombosis Research 10, 399-410 (1977)): The determination was effected in a Cobas-Bio centrifugal automatic spectrophotometer. The buffer solution used consisted of 50 mM Tris buffer, 180 mM NaCl, 7.5 mM EDTA Na2, 1% PEG 6000 and 0.02% Tween 80, pH 8.4. The test solution consisted of 50 μl of buffer, 30 μl of antithombin III (1U/ml, Kabi Diagnostica) and 20 μl of plasma which contained various concentrations of test compounds. 30 μl of sample solution and 20 μl of water with 180 μl of thrombin (1U/ml, Thrombin Reagent Roche Basle) were added to the test cuvette in the automatic analyzer. After incubation at 37° C. for 240 seconds, 60 μl of S-2238 (H-D-Phe-Pip-Arg-NH.pNA, Kabi Diagnostica, Mondal, Sweden, 0.75 mM in water) and 20 μl of water were added. The liberation of pNA (p-nitro-aniline) was followed during 60 seconds at 405 nm in 10 second intervals in comparison to water as the blank.
The inhibition of Factor Xa was measured in the same manner using a solution of Factor Xa (2.8 nkat/ml and 2 mM S-2222 (Bz-CO-Ile-Glu-Arg-NH.pNA, Kabi Diagnostica) in water in place of thrombin and, respectively, S-2238.

[4] = target: T2, thrombin (Homo sapiens, UniProt P00734); assay type: biochemical
T2 construct: purchased Roche Basle (Thrombin Reagent)
Method: as §1

[5] = with antithrombin III and plasma, S-2222 substrate; read-out: Anticoagulative Activity IC50 Factor Xa
[6] = with antithrombin III and plasma, S-2238 substrate, 37° C., pH 8.4; read-out: Anticoagulative Activity IC50 Thrombin

SMILES	IC50 [3, 5] [µM]	IC50 [4, 6] [µM]	cross-sectional area of the neointima in rat carotids 14 days after balloonisation [1]	Antiproliferative Activity ri (relative inhibitory activity versus heparin) [2]	IC50 ([3]; read-out: Anticoagulative Activity IC50 Factor Xa; with antithrombin III and plasma, S-2222 substrate) [µM]	IC50 ([4]; read-out: Anticoagulative Activity IC50 Thrombin; with antithrombin III and plasma, S-2238 substrate, 37° C., pH 8.4) [µM]
O=C(N[C@H]1[C@@H](OCc2ccccc2)O[C@H](CNC(=O)[C@H](OS(=O)(=O)O)[C@@H](OS(=O)(=O)O)[C@H](OS(=O)(=O)O)[C@@H](COS(=O)(=O)O)OS(=O)(=O)O)[C@@H](OS(=O)(=O)O)[C@@H]1OS(=O)(=O)O)c1cccc(C(=O)N[C@H]2[C@@H](OCc3ccccc3)O[C@H](CNC(=O)[C@H](OS(=O)(=O)O)[C@@H](OS(=O)(=O)O)[C@H](OS(=O)(=O)O)[C@@H](COS(=O)(=O)O)OS(=O)(=O)O)[C@@H](OS(=O)(=O)O)[C@@H]2OS(=O)(=O)O)c1 [Example 24, Isophthalic acid bis-[[benzyl 2,6-didesoxy-6-(2,3,4,5,6-penta-O-sulfo-D-gluconoylamino)-3,4-di-O-sulfo-a-D-gluco-pyranosid-2-yl]-amide] tetradecasodium salt]			significantly reduced			
O=C(NC[C@H]1O[C@H](OCc2ccccc2)[C@H](NC(=O)c2ccc(NC[C@H](OS(=O)(=O)O)[C@@H](OS(=O)(=O)O)[C@H](OS(=O)(=O)O)[C@@H](COS(=O)(=O)O)OS(=O)(=O)O)c([N+](=O)[O-])c2)[C@@H](OS(=O)(=O)O)[C@@H]1OS(=O)(=O)O)c1cc(C(=O)NC[C@H]2O[C@H](OCc3ccccc3)[C@H](NC(=O)c3ccc(NC[C@H](OS(=O)(=O)O)[C@@H](OS(=O)(=O)O)[C@H](OS(=O)(=O)O)[C@@H](COS(=O)(=O)O)OS(=O)(=O)O)c([N+](=O)[O-])c3)[C@@H](OS(=O)(=O)O)[C@@H]2OS(=O)(=O)O)cc(C(=O)NC[C@H]2O[C@H](OCc3ccccc3)[C@H](NC(=O)c3ccc(NC[C@H](OS(=O)(=O)O)[C@@H](OS(=O)(=O)O)[C@H](OS(=O)(=O)O)[C@@H](COS(=O)(=O)O)OS(=O)(=O)O)c([N+](=O)[O-])c3)[C@@H](OS(=O)(=O)O)[C@@H]2OS(=O)(=O)O)c1 [Example 30, Benzene-1,3,5-tricarboxylic acid tris-[[benzyl 2,6-didesoxy-2-[4-(2,3,4,5,6-penta-O-sulfo-D-glucit-1-ylamino)-3-nitro-benzoylamino]-3,4-di-O-sulfo-a-D-glucopyranosid-6-yl]-amide] henicosasodium salt]				1.6	> 276	> 276

Second part, led by results:

IC50 [3, 5] [µM]	IC50 [4, 6] [µM]	SMILES	cross-sectional area of the neointima in rat carotids 14 days after balloonisation [1]	Antiproliferative Activity ri (relative inhibitory activity versus heparin) [2]	IC50 ([3]; read-out: Anticoagulative Activity IC50 Factor Xa; with antithrombin III and plasma, S-2222 substrate) [µM]	IC50 ([4]; read-out: Anticoagulative Activity IC50 Thrombin; with antithrombin III and plasma, S-2238 substrate, 37° C., pH 8.4) [µM]
> 450	> 450	O=C(N[C@H]1[C@@H](OCc2ccccc2)O[C@H](CNC(=O)[C@H](OS(=O)(=O)O)[C@@H](OS(=O)(=O)O)[C@H](OS(=O)(=O)O)[C@@H](COS(=O)(=O)O)OS(=O)(=O)O)[C@@H](OS(=O)(=O)O)[C@@H]1OS(=O)(=O)O)c1ccc(-c2ccc(C(=O)N[C@H]3[C@@H](OCc4ccccc4)O[C@H](CNC(=O)[C@H](OS(=O)(=O)O)[C@@H](OS(=O)(=O)O)[C@H](OS(=O)(=O)O)[C@@H](COS(=O)(=O)O)OS(=O)(=O)O)[C@@H](OS(=O)(=O)O)[C@@H]3OS(=O)(=O)O)cc2)cc1 [Example 14, Biphenyl-4,4'-dicarboxylic acid bis-[[benzyl 2,6-didesoxy-3,4-di-O-sulfo-6-(2,3,4,5,6-penta-O-sulfo-D-gluconoylamino)-a-D-glucopyranosid-2-yl]-amide] tetradecasodium salt]	significantly reduced	1.2		
> 495	> 495	O=C(CO[C@@H]1[C@@H](NC(=O)c2ccc(-c3ccc(C(=O)N[C@H]4[C@@H](OCc5ccccc5)O[C@@H]5CO[C@@H](c6ccccc6)O[C@H]5[C@@H]4OCC(=O)N[C@H]4[C@@H](OCc5ccccc5)O[C@H](COS(=O)(=O)O)[C@@H](OS(=O)(=O)O)[C@@H]4OS(=O)(=O)O)cc3)cc2)[C@@H](OCc2ccccc2)O[C@@H]2CO[C@@H](c3ccccc3)O[C@@H]12)N[C@H]1[C@@H](OCc2ccccc2)O[C@H](COS(=O)(=O)O)[C@@H](OS(=O)(=O)O)[C@@H]1OS(=O)(=O)O [Example 11, (Biphenyl-4,4'-dicarboxylic acid) bis-[[benzyl 3-O-[(benzyl 2-desoxy-2,3,4-tri-O-sulfo-a-D-glucopyranoside)-2-yl-carbamoylmethyl]-4,6-(R)-O-benzylidene-2-desoxy-a-D-glucopyranosid-2-yl]-amide] hexasodium salt]		1.7		
> 401	> 401	CC(=O)Nc1cc(C(=O)N[C@H]2[C@@H](OCc3ccccc3)O[C@H](CNC(=O)c3cccc(C(=O)NC[C@H]4O[C@H](OCc5ccccc5)[C@H](NC(=O)c5ccc(N(C)C[C@H](OS(=O)(=O)O)[C@@H](OS(=O)(=O)O)[C@H](OS(=O)(=O)O)[C@@H](COS(=O)(=O)O)OS(=O)(=O)O)c(NC(C)=O)c5)[C@@H](OS(=O)(=O)O)[C@@H]4OS(=O)(=O)O)c3)[C@@H](OS(=O)(=O)O)[C@@H]2OS(=O)(=O)O)ccc1N(C)C[C@H](OS(=O)(=O)O)[C@@H](OS(=O)(=O)O)[C@H](OS(=O)(=O)O)[C@@H](COS(=O)(=O)O)OS(=O)(=O)O [Example 37, Isophthalic acid bis-[[benzyl 2-[3-acetylamino-4-[methyl-(2,3,4,5,6-penta-O-sulfo-D-glucit-1-yl)-amino]-benzoylamino]-2,6-didesoxy-3,4-di-O-sulfo-a-D-glucopyranosid-6-yl]-amide] tetradecasodium salt]		1.9		
